Measured values published in US10738041B2, “Ferroportin inhibitors” (Vifor (International) AG, priority 2015, dated 2020).
Read-outs that look alike come from different tables or passages of the source.

Assays:
human Fpn = target: T1, human Fpn (Homo sapiens, UniProt Q9NP59); assay: Biophysical Ferroportin-Hepcidin Binding Assay (fluorescence polarization)
T1 construct: FLAG (C); made in house; host or cells: Pichia pastoris
T1 sequence (Q9NP59 1-571): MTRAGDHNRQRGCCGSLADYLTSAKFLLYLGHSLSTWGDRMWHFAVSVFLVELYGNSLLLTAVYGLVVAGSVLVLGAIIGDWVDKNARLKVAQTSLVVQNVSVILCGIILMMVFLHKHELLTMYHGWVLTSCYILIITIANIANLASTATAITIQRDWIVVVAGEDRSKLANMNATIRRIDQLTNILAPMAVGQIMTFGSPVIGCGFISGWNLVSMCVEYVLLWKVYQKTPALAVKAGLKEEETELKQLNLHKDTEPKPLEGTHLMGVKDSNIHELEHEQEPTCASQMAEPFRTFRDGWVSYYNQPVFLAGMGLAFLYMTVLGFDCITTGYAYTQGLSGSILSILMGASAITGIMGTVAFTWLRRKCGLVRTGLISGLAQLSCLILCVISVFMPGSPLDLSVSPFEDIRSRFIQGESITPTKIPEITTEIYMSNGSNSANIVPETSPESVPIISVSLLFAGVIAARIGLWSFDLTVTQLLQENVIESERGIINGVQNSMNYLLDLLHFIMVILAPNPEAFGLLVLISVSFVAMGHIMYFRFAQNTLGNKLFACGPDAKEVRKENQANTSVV
In short: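 Purified human Fpn (C-terminal FLAG tag, expressed in Pichia pastoris) at 1 μM final was incubated with 20 nM TMR-hepcidin and serially diluted compounds in duplicate for 90 min at room temperature. Binding inhibition was read as a dose-dependent fall in FP (mP), calculated from parallel and perpendicular fluorescence.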

ferroportin (Fpn) = target: T2, ferroportin (Fpn) (Mus musculus, UniProt Q9JHI9); assay: Hepcidin Internalization Assay (J774); type: cell-based
T2 construct: host or cells: J774 mouse macrophage cell line, Fe(III)-NTA induced
T2 sequence (Q9JHI9 1-570): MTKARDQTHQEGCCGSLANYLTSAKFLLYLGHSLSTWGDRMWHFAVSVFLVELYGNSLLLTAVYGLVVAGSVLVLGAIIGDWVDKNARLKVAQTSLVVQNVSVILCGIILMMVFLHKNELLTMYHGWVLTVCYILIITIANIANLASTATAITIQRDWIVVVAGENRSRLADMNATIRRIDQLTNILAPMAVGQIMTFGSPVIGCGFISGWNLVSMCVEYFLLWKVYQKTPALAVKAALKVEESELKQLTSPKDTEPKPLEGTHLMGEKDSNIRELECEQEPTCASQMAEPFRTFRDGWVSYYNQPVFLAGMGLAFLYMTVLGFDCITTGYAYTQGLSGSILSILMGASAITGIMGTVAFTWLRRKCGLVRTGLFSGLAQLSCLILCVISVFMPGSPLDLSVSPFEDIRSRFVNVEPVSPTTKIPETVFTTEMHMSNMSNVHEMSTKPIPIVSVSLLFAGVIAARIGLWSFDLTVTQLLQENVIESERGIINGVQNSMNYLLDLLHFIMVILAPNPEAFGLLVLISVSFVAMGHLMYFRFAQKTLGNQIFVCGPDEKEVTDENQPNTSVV
In short: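 Mouse J774 macrophages, loaded overnight with 200 μM Fe(III)NTA, incubated 2 h at 37 °C with test compounds and TMR-labeled hepcidin. Cell-associated TMR fluorescence, a proxy for hepcidin binding to Fpn and internalization, quantified by automated imaging with Hoechst nuclear counterstain after fixation; IC50 from log(inhibitor) vs. response fit, triplicates.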

[1] = average of multiple measurements, 1 μM human Fpn, 20 nM TMR-hepcidin, read-out: FP IC50
[2] = average of multiple measurements, inhibition of TMR-hepcidin (25 nM) internalization into J774 cells, read-out: J774 IC50

| SMILES | IC50 (human Fpn; [1]) [nM] | IC50 (ferroportin (Fpn); [2]) [nM] | IC50 (human Fpn) [nM] | IC50 (ferroportin (Fpn); IC50 of unlabeled hepcidin in the hepcidin internalization assay, J774 cells, TMR-hepcidin 25 nM) [nM] |
| --- | --- | --- | --- | --- |
| O=C(NCc1ccccn1)c1csc(CCNCc2nc3ccccc3[nH]2)n1 [Example 12] | 860 | 80 |  |  |
| O=C(NC1CCc2cccnc21)c1csc(CCNCc2nc3ccccc3[nH]2)n1 (stereo not drawn) [Example 39] | 1340 | 70 |  |  |
| O=C(NCc1ncccc1Cl)c1csc(CCNCc2nc3ccccc3[nH]2)n1 [Example 82] | 374 | 6 |  |  |
| Cc1cnccc1CNC(=O)c1csc(CCNCc2nc3ccccc3[nH]2)n1 [Example 90] | 418 | 25 |  |  |
| O=C(NCc1ncccc1F)c1csc(CCNCCc2nc3ccccc3[nH]2)n1 [Example 94] | 44 | 12 |  |  |
| O=C(NCc1ncccc1F)c1cnn(CCNCCc2nc3ccccc3[nH]2)c1 [Example 111] | 51 | 35 |  |  |
| O=C(NCc1ncc(F)cc1F)c1csc(CCNCCc2nc3ccccc3[nH]2)n1 [Example 116] | 58 | 1000 |  |  |
| O=C(NCc1ncccc1F)c1csc(CNCCc2nc3ccccc3[nH]2)n1 [Example 118] | 250 | 103 |  |  |
| O=C(NCc1ncccc1F)c1csc(CCNCCc2nc3cc(F)ccc3[nH]2)n1 [Example 120] | 71 | 34 |  |  |
| O=C(NCc1cccnn1)c1csc(CCNCCc2nc3ccccc3[nH]2)n1 [Example 122] | 214 | 26 |  |  |
| O=C(NCc1ncccc1F)c1coc(CCNCc2nc3ccccc3[nH]2)n1 [Example 126] | 120 | 96 |  |  |
| O=C(NCc1ncccc1F)c1coc(CCNCCc2nc3ccccc3[nH]2)n1 [Example 127] | 23 | 9 |  |  |
| O=C(NCc1ncccc1F)c1csc(CCCNCc2nc3ccccc3[nH]2)n1 [Example 134] | 970 | 377 |  |  |
| O=C(NCc1ccccn1)c1coc(CCNCc2nc3ccccc3[nH]2)n1 [Example 137] | 1040 | 514 |  |  |
| O=C(NCc1ncccc1Cl)c1cnn(CCNCc2nc3ccccc3[nH]2)c1 [Example 138] | 160 | 179 |  |  |
| O=C(NCc1ncccc1Cl)c1coc(CCNCc2nc3ccccc3[nH]2)n1 [Example 141] | 49 | 167 |  |  |
| O=C(NCc1ncccc1Cl)c1cnn(CCNCCc2nc3ccccc3[nH]2)c1 [Example 144] | 73 | 12 |  |  |
| O=C(NCc1ncccc1F)c1nc(CCNCc2nc3ccccc3[nH]2)sc1Cl [Example 151] | 89 | 111 |  |  |

| SMILES | IC50 (human Fpn; [1]) [nM] | IC50 (ferroportin (Fpn); [2]) [nM] | IC50 (human Fpn) [nM] | IC50 (ferroportin (Fpn); IC50 of unlabeled hepcidin in the hepcidin internalization assay, J774 cells, TMR-hepcidin 25 nM) [nM] |
| --- | --- | --- | --- | --- |
| O=C(NCc1ncccc1F)c1csc(CCN(CCc2nc3ccccc3[nH]2)CCc2nc3ccccc3[nH]2)n1 [Example 152] | 23 | 4 |  |  |
| O=C(NCc1ncccc1F)c1nc(CCNCCc2nc3ccccc3[nH]2)sc1Cl [Example 154] | 30 | 8.3 |  |  |
| O=C(NC1CCc2cccnc21)c1csc(CCNCCc2nc3ccccc3[nH]2)n1 (stereo not drawn) [Example 158] | 41 | 47 |  |  |
| O=C(NCc1cccnn1)c1nc(CCNCc2nc3ccccc3[nH]2)sc1Cl [Example 161] | 260 | 361 |  |  |
| O=C(NCc1ncccc1F)c1ncn(CCNCc2nc3ccccc3[nH]2)n1 [Example 169] | 540 | 750 |  |  |
| O=C(NCc1ncccc1F)c1ncn(CCNCCc2nc3ccccc3[nH]2)n1 [Example 181] | 89 | 135 |  |  |
| O=C(NCc1ncccc1F)c1csc(CCNCC(F)(F)c2nc3ccccc3[nH]2)n1 [Example 196] | 870 | 1130 |  |  |
| O=C(NCc1ncccc1F)c1coc(C2CN(CCc3nc4ccccc4[nH]3)C2)n1 [Example 208] | 19 | 12 |  |  |
| O=C(NCc1ncccc1F)c1cccc(CNCCc2nc3ccccc3[nH]2)c1 [Example 224] | 201 | 140 |  |  |
| O=C(NCc1ncccc1F)c1coc(CCNCCc2nc3c(Cl)cccc3[nH]2)n1 [Example 226] | 26 | 49 |  |  |
| O=C(NCc1ncccc1F)c1coc(CCNCCc2nc3c(F)cccc3[nH]2)n1 [Example 228] | 21 | 46 |  |  |
| Cc1oc(CCNCCc2nc3ccccc3[nH]2)nc1C(=O)NCc1ncccc1F [Example 230] | 58 | 140 |  |  |
| O=C(NCc1ncccc1F)c1coc(C2CN(CCc3nc4c(F)cccc4[nH]3)C2)n1 [Example 239] | 38 | 36 |  |  |
| O=C(NCc1ncccc1F)c1csc(CCNCCc2nc3c(F)cccc3[nH]2)n1 [Example 243] | 34 | 32 |  |  |
| O=C(NCc1ncccc1F)c1coc(CCNCCc2nc3c(F)cc(F)cc3[nH]2)n1 [Example 249] | 44 | 40 |  |  |
| O=C(NCc1ncccc1F)c1coc(CCNCCc2nc3cc(F)ccc3[nH]2)n1 [Example 250] | 19 | 14 |  |  |
| O=C(NCc1ncccc1F)c1cncc(C2CN(CCc3nc4ccccc4[nH]3)C2)c1 [compound 237] | 66 | 81 |  |  |
| CC[C@H](C)[C@@H]1NC(=O)[C@@H](NC(=O)[C@@H](NC(=O)[C@@H]2CCCN2C(=O)[C@H](Cc2ccccc2)NC(=O)[C@H](Cc2c[nH]cn2)NC(=O)[C@@H](NC(=O)[C@@H](N)CC(=O)O)[C@@H](C)O)[C@@H](C)CC)CSSC[C@@H](C(=O)N[C@@H](CCCCN)C(=O)N[C@H](C(=O)O)[C@@H](C)O)NC(=O)[C@@H]2CSSC[C@@H]3NC(=O)[C@@H]4CSSC[C@H](NC(=O)[C@H](Cc5ccccc5)NC1=O)C(=O)N[C@@H](CSSC[C@H](NC(=O)[C@H](CCCCN)NC(=O)[C@H](CO)NC(=O)[C@H](CCCNC(=N)N)NC(=O)[C@H](Cc1c[nH]cn1)NC3=O)C(=O)NCC(=O)N[C@@H](CCSC)C(=O)N2)C(=O)NCC(=O)N4 [hepcidin, reference compound] |  |  | 370 ± 67 | 15 ± 11 |
